Source: patent US7301033B2, “PPAR-activating compound” (Kowa Co., Ltd., priority 2005, dated 2007)

What was measured:
Type in all cases: cell-based
[1] = molecular target: T1, human PPARα (Homo sapiens, UniProt Q07869); assay: Gal4-human PPARα chimera luciferase transfection assay in COS cells
T1 construct: 166th to 467th amino acids of human PPARα; expressed in transfected cells; host or cells: COS cells (African green monkey kidney)
T1 sequence (Q07869 166-467): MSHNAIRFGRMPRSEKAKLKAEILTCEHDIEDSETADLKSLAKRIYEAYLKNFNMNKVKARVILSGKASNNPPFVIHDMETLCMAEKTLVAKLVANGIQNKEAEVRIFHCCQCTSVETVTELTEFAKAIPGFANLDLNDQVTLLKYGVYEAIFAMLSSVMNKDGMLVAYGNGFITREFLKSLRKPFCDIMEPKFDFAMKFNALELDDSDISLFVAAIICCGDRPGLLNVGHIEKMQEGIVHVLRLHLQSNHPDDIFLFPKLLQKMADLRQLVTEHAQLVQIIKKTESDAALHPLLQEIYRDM
Experimental: (§1) The PPAR receptor-activating effect of the compound of the present invention represented by the formula (1) was measured by a method described below (Proc. Natl. Acad. Sci., 92, pp 7297-7301, 1995; Journal of Lipid Research, 40, pp 2099-2110, 1999; and Proc. Natl. Acad. Sci, 98, pp 5306-5311, 2001).
(§2) All the transfection assays were conducted using African green monkey kidney-derived cell line COS cells. The COS cells were cultured at 5% CO2 concentration using a DMEM medium containing 10% fetal bovine serum, glutamic acid, and an antibiotic as a culture solution.
(§3) Gal4-human PPARs chimeric constructs which were fused the DNA-binding region of yeast transcription factor Gal4 with the ligand-binding region of human PPARs were used as an expression vector. A chimera where 1st to 147th amino acids of the Gal4 transcription factor were fused with 166th to 467th amino acids of human PPARα, with 182nd to 505th amino acids of human PPARγ2, or with 137th to 441st amino acids of human PPARδ was used as the chimera for each isoform. A reporter vector used was firefly luciferase whose promoter region contains five Gal4 recognition sequences. The plasmids were transfected into the cells by a method using Lipofectamine. In addition, a β-galactosidase expression vector was used as an internal standard.
(§4) After the transfection into the cells, the medium was substituted with a DMEM medium (containing 0.2% serum) supplemented with the compound, in which the cells were then cultured for additional 16 hours. Thereafter, luciferase activity and β-galactosidase activity in the cell lysate were measured.
(§5) In the present experiment, dimethyl sulfoxide (DMSO) was used in the dissolution and dilution of the compound. When the cells were treated, the DMSO concentration in the DMEM medium (containing 0.2% serum) was adjusted to 0.1%.

[2] = molecular target: T2, human PPARγ2 (Homo sapiens, UniProt P37231); assay: Gal4-human PPARγ2 chimera luciferase transfection assay in COS cells; conditions: compound added at 1 μM, luciferase activity with rosiglitazone 1 μM given as 10.0, 16 hours
T2 construct: with 182nd to 505th amino acids of human PPARγ2; expressed in transfected cells; host or cells: COS cells (African green monkey kidney)
T2 sequence (P37231 182-505): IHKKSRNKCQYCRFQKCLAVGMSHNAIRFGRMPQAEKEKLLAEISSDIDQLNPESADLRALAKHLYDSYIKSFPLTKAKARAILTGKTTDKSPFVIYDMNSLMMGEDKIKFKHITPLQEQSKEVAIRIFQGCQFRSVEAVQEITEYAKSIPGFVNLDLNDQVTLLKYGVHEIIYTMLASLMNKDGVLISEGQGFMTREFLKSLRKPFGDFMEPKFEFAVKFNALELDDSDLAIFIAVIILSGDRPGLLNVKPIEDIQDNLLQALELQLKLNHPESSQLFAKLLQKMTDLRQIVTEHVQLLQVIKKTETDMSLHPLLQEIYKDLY
Experimental: as §1, §2, §3, §4, §5

[3] = molecular target: T3, human PPARδ (Homo sapiens, UniProt Q03181); assay: Gal4-human PPARδ chimera luciferase transfection assay in COS cells; conditions: compound added at 1 μM, luciferase activity with GW501516 1 μM given as 10.0, 16 hours
T3 construct: with 137th to 441st amino acids of human PPARδ; expressed in transfected cells; host or cells: COS cells (African green monkey kidney)
T3 sequence (Q03181 137-441): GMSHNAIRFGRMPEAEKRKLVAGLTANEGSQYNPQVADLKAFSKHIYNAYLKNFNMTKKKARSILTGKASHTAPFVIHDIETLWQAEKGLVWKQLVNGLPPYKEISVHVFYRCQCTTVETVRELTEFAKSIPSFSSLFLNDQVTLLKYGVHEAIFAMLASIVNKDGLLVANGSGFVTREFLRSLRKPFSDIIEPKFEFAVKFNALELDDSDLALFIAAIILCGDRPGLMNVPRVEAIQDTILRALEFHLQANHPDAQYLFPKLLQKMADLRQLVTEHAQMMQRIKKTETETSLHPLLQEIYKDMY
Experimental: as §1, §2, §3, §4, §5

[4] = compound added at 1 μM, luciferase activity with WY14643 10 μM given as 10.0, 16 hours

SMILES	hPPAR; Relative activity α [1, 4]	hPPAR; Relative activity γ [2]	hPPAR; Relative activity δ [3]	hPPAR; Relative activity α ([1]; positive compound at 10 μM, its luciferase activity given as 10.0, 16 hours)
CCCCCCCN(CCCOc1cccc(C(=O)O)c1)c1nc2ccccc2o1 [Example 19, 3-[3-[N-(Benzoxazol-2-yl)-N-n-heptyl]aminopropoxy]benzoic acid]	15.1	1.7	0.5	–
CCCCCCCCN(CCCOc1cccc(C(=O)O)c1)c1nc2ccccc2o1 [Example 20, 3-[3-[N-(Benzoxazol-2-yl)-N-n-octyl]aminopropoxy]benzoic acid]	21.7	1.5	0.2	–
O=C(O)c1cccc(OCCCCN(CCOc2ccc(Cl)cc2)c2nc3ccccc3o2)c1 [Example 45, 3-[4-[N-(Benzoxazol-2-yl)-N-2-(4-chloropheoxyl)ethyl]aminobutoxy]benzoic acid]	12.3	3.5	0.6	–
CCCCCCCN(CCCCOc1cccc(C(=O)O)c1)c1nc2ccccc2o1 [Example 46, 3-[4-[N-(Benzoxazol-2-yl)-N-n-heptyl]aminobutoxy]benzoic acid]	16.5	1.9	0.3	–
CCCCCN(CCCCOc1cccc(C(=O)O)c1)c1nc2ccccc2o1 [Example 47, 3-[4-[N-(Benzoxazol-2-yl)-N-n-pentyl]aminobutoxy]benzoic acid]	10.4	1.2	0.3	–
O=C(O)c1cccc(OCCCCN(CCCOc2ccccc2)c2nc3ccccc3o2)c1 [Example 48, 3-[4-[N-(Benzoxazol-2-yl)-N-3-phenoxypropyl]aminobutoxy]benzoic acid]	16.0	2.1	0.2	–
CCCCCCCCN(CCCCOc1ccccc1C(=O)O)c1nc2ccccc2o1 [Example 50, 2-[4-[N-(Benzoxazol-2-yl)-N-n-octyl]aminobutoxy]benzoic acid]	13.3	2.9	0.1	–
O=C(O)c1ccccc1OCCCCN(CCOc1ccccc1)c1nc2ccccc2o1 [Example 52, 2-[4-[N-(Benzoxazol-2-yl)-N-2-phenoxyethyl]aminobutoxy]benzoic acid]	13.8	2.1	0.1	–
O=C(O)c1ccccc1OCCCCN(CCCOc1ccccc1)c1nc2ccccc2o1 [Example 53, 2-[4-[N-(Benzoxazol-2-yl)-N-3-phenoxypropyl]aminobutoxy]benzoic acid]	16.0	3.5	0.1	–
CCCCCCN(CCCCOc1ccc(C(=O)O)cc1)c1nc2ccccc2o1 [Example 60, 4-[4-[N-(Benzoxazol-2-yl)-N-n-hexyl]aminobutoxy]benzoic acid]	11.9	1.8	0.1	–
CCCCCN(CCCCCSc1ccccc1C(=O)O)c1nc2ccccc2o1 [Example 72, 2-[5-[N-(Benzoxazol-2-yl)-N-n-pentyl]aminopentylthio]benzoic acid]	13.5	1.7	0.6	–
O=C(O)c1ccccc1SCCN(Cc1ccccc1[N+](=O)[O-])c1nc2ccccc2o1 [Example 74, 2-[2-[N-(Benzoxazol-2-yl)-N-2-nitrobenzyl]aminoethylthio]benzoic acid]	10.2	0.7	0.3	–
O=C(O)c1ccccc1SCCN(CCCc1ccccc1)c1nc2ccccc2o1 [Example 79, 2-[2-[N-(Benzoxazol-2-yl)-N-3-phenylpropyl]aminoethylthio]benzoic acid]	13.3	1.1	0.2	–
O=C(O)c1ccccc1SCCN(CCCOc1ccccc1)c1nc2ccccc2o1 [Example 80, 2-[2-[N-(Benzoxazol-2-yl)-N-3-phenoxypropyl]aminoethylthio]benzoic acid]	17.8	1.6	0.2	–

Next, values leading:

hPPAR; Relative activity α [1, 4]	hPPAR; Relative activity γ [2]	hPPAR; Relative activity δ [3]	hPPAR; Relative activity α ([1]; positive compound at 10 μM, its luciferase activity given as 10.0, 16 hours)	SMILES
17.3	1.2	0.3	–	O=C(O)c1cccc(OCCCN(CCOc2ccc(Cl)cc2)c2nc3ccccc3o2)c1 [Example 6, 3-[3-[N-(Benzoxazol-2-yl)-N-2-(4-chlorophenoxy)ethyl]aminopropoxy]benzoic acid]
15.2	6.2	0.1	–	CCCCCCCCN(CCOc1ccccc1C(=O)O)c1nc2ccccc2o1 [Example 13, 2-[2-[N-(Benzoxazol-2-yl)-N-n-octyl]aminoethoxy]benzoic acid]
13.7	1.9	0.1	–	CCCCCCCCN(CCCOc1ccccc1C(=O)O)c1nc2ccccc2o1 [Example 27, 2-[3-[N-(Benzoxazol-2-yl)-N-n-octyl]aminopropoxy]benzoic acid]
12.4	1.4	0.2	–	CC(C)N(CCCCCSc1ccccc1C(=O)O)c1nc2ccccc2o1 [Example 70, 2-[5-[N-(Benzoxazol-2-yl)-N-isopropyl]aminopentylthio]benzoic acid]
11.0	2.0	0.5	–	CCCCN(CCCCCSc1ccccc1C(=O)O)c1nc2ccccc2o1 [Example 71, 2-[5-[N-(Benzoxazol-2-yl)-N-n-butyl]aminopentylthio]benzoic acid]
11.2	1.1	0.2	–	Cc1c(CN(CCSc2ccccc2C(=O)O)c2nc3ccccc3o2)cccc1[N+](=O)[O-] [Example 73, 2-[2-[N-(Benzoxazol-2-yl)-N-(2-methyl-3-nitrobenzyl) ]aminoethylthio]benzoic acid]
18.9	2.0	0.2	–	CCCCCCCN(CCSc1ccccc1C(=O)O)c1nc2ccccc2o1 [Example 77, 2-[2-[N-(Benzoxazol-2-yl)-N-n-heptyl]aminoethylthio]benzoic acid]
20.8	2.1	0.2	–	CCCCCCCCN(CCSc1ccccc1C(=O)O)c1nc2ccccc2o1 [Example 78, 2-[2-[N-(Benzoxazol-2-yl)-N-n-octyl]aminoethylthio]benzoic acid]
–	–	–	10.0	Cc1cccc(Nc2cc(Cl)nc(SCC(=O)O)n2)c1C [WY14643, reference compound]
